From ChEMBL document CHEMBL4680348, “1,2,4-Thiadiazole acyclic nucleoside phosphonates as inhibitors of cysteine dependent enzymes cathepsin K and GSK-3β” (Bioorg Med Chem, 2021)

Key:
Cathepsin K = biological target: T1, Cathepsin K (Homo sapiens, UniProt P43235); experiment: Inhibition of recombinant human Cathepsin K expressed in Pichia pastoris X-33 using Z-Gly-Pro-Arg-AMC as substrate preincubated for 10 mins followed by substrate addition measured after 30 mins by fluorescence based microplate reader assay
T1 sequence (P43235 whole entry): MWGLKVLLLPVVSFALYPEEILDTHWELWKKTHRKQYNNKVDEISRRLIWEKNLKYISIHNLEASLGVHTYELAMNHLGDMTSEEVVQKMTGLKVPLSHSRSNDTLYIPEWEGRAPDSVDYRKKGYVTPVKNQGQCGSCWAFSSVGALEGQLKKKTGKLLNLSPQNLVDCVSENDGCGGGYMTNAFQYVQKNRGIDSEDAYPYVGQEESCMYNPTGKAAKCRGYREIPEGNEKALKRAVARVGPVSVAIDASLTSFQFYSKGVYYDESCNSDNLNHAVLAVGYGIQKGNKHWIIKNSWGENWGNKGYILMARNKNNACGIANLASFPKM

[1] = Cytotoxicity against human NHDF cells assessed as cell viability at 100 uM incubated for 72 hrs by CellTiter-Glo luminescence based assay; settings: read-out: Activity
HepG2 [2] = experiment: Cytotoxicity against human HepG2 cells assessed as cell viability at 100 uM incubated for 72 hrs by CellTiter-Glo luminescence based assay; type: functional; settings: read-out: Activity
HeLa S3 [3] = experiment: Cytotoxicity against human HeLa S3 cells assessed as cell viability at 100 uM incubated for 72 hrs by CellTiter-Glo luminescence based assay; type: functional; settings: read-out: Activity
CCRF-CEM [4] = experiment: Cytotoxicity against human CCRF-CEM cells assessed as cell viability at 10 uM incubated for 72 hrs by CellTiter-Glo luminescence based assay; type: functional; settings: read-out: Activity
HeLa S3 [5] = experiment: Cytotoxicity against human HeLa S3 cells assessed as cell viability at 10 uM incubated for 72 hrs by CellTiter-Glo luminescence based assay; type: functional; settings: read-out: Activity
SH-SY5Y [6] = experiment: Cytotoxicity against human SH-SY5Y cells assessed as cell viability at 10 uM incubated for 72 hrs by CellTiter-Glo luminescence based assay; type: functional; settings: read-out: Activity
HL-60 [7] = experiment: Cytotoxicity against human HL-60 cells assessed as cell viability at 100 uM incubated for 72 hrs by CellTiter-Glo luminescence based assay; type: functional; settings: read-out: Activity
CCRF-CEM [8] = experiment: Cytotoxicity against human CCRF-CEM cells assessed as cell viability at 100 uM incubated for 72 hrs by CellTiter-Glo luminescence based assay; type: functional; settings: read-out: Activity
[9] = biological target: Glycogen synthase kinase-3 beta (Homo sapiens, UniProt P49841); experiment: Inhibition of human recombinant GSK3beta using GSK3 peptide as substrate preincubated for 15 mins followed by ATP addition and measured after 90 mins by ADP-Glo kinase assay
HepG2 [10] = experiment: Cytotoxicity against human HepG2 cells assessed as cell viability at 10 uM incubated for 72 hrs by CellTiter-Glo luminescence based assay; type: functional; settings: read-out: Activity
SH-SY5Y [11] = experiment: Cytotoxicity against human SH-SY5Y cells assessed as cell viability at 100 uM incubated for 72 hrs by CellTiter-Glo luminescence based assay; type: functional; settings: read-out: Activity
[12] = Cytotoxicity against human NHDF cells assessed as cell viability at 10 uM incubated for 72 hrs by CellTiter-Glo luminescence based assay; settings: read-out: Activity
HL-60 [13] = experiment: Cytotoxicity against human HL-60 cells assessed as cell viability at 10 uM incubated for 72 hrs by CellTiter-Glo luminescence based assay; type: functional; settings: read-out: Activity
[14] = biological target: T2, Cathepsin K (Homo sapiens) (UniProt P43235); experiment: Inhibition of recombinant human Cathepsin K expressed in Pichia pastoris X-33 assessed as residual activity at 10 uM using Z-Gly-Pro-Arg-AMC as substrate preincubated for 10 mins followed by substrate addition measured after 30 mins by fluorescence based microplate reader assay; settings: time 40.0 min
T2 sequence (whole entry): T1 sequence (P43235 whole entry)

Sequence of Glycogen synthase kinase-3 beta (P49841 whole entry): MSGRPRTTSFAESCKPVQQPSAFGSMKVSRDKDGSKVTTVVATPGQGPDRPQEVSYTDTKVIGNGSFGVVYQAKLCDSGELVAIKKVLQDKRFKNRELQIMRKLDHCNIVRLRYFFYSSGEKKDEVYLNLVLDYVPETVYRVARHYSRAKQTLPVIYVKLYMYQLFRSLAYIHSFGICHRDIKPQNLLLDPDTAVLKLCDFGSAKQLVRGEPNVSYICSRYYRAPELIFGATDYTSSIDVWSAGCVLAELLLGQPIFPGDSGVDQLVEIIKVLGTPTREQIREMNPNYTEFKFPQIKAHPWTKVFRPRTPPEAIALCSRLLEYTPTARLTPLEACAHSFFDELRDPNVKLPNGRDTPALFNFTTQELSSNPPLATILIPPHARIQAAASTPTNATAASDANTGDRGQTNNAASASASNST

Compound: CCOC(=O)Nc1nc(=O)n(CCOCP(=O)(O)O)s1
- IC50 (Cathepsin K): 10.1 µM
- viability at 72 h, 100 µM [1]: 97%
- viability at 100 µM (HepG2 [2]): 97%
- viability at 100 µM (HeLa S3 [3]): 96%
- viability at 10 µM (CCRF-CEM [4]): 74%
- viability at 10 µM (HeLa S3 [5]): 94%
- viability at 10 µM (SH-SY5Y [6]): 103%
- viability at 100 µM (HL-60 [7]): 100%
- viability at 100 µM (CCRF-CEM [8]): 77%
- IC50 [9]: > 10 µM
- viability at 10 µM (HepG2 [10]): 98%
- viability at 100 µM (SH-SY5Y [11]): 105%
- viability at 72 h, 10 µM [12]: 94%
- viability at 10 µM (HL-60 [13]): 96%
- Activity [14]: 39.1%

Compound: CN(C)/C=N/c1nc(OC[C@H](O)COC(c2ccccc2)(c2ccccc2)c2ccccc2)ns1
- IC50 (Cathepsin K): 2.63 µM
- viability at 72 h, 100 µM [1]: 1%
- viability at 100 µM (HepG2 [2]): 1%
- viability at 100 µM (HeLa S3 [3]): 2%
- viability at 10 µM (CCRF-CEM [4]): 101%
- viability at 10 µM (HeLa S3 [5]): 91%
- viability at 10 µM (SH-SY5Y [6]): 99%
- viability at 100 µM (HL-60 [7]): 1%
- viability at 100 µM (CCRF-CEM [8]): 2%
- IC50 [9]: > 10 µM
- viability at 10 µM (HepG2 [10]): 92%
- viability at 100 µM (SH-SY5Y [11]): 2%
- viability at 72 h, 10 µM [12]: 97%
- viability at 10 µM (HL-60 [13]): 86%
- Activity [14]: 5.3%

Compound: O=C(/N=c1\s[nH]c(=O)n1C[C@H](O)COC(c1ccccc1)(c1ccccc1)c1ccccc1)c1ccccc1
- IC50 (Cathepsin K): 14.9 µM
- viability at 72 h, 100 µM [1]: 79%
- viability at 100 µM (HepG2 [2]): 37%
- viability at 100 µM (HeLa S3 [3]): 3%
- viability at 10 µM (CCRF-CEM [4]): 81%
- viability at 10 µM (HeLa S3 [5]): 45%
- viability at 10 µM (SH-SY5Y [6]): 96%
- viability at 100 µM (HL-60 [7]): 9%
- viability at 100 µM (CCRF-CEM [8]): 5%
- IC50 [9]: > 10 µM
- viability at 10 µM (HepG2 [10]): 91%
- viability at 100 µM (SH-SY5Y [11]): 34%
- viability at 72 h, 10 µM [12]: 98%
- viability at 10 µM (HL-60 [13]): 93%
- Activity [14]: 34.2%

Compound: CN(C)/C=N/c1nc(=O)n(C[C@H](O)COC(c2ccccc2)(c2ccccc2)c2ccccc2)s1
- IC50 (Cathepsin K): 10.1 µM
- viability at 72 h, 100 µM [1]: 1%
- viability at 100 µM (HepG2 [2]): 1%
- viability at 100 µM (HeLa S3 [3]): 1%
- viability at 10 µM (CCRF-CEM [4]): 15%
- viability at 10 µM (HeLa S3 [5]): 80%
- viability at 10 µM (SH-SY5Y [6]): 67%
- viability at 100 µM (HL-60 [7]): 2%
- viability at 100 µM (CCRF-CEM [8]): 1%
- IC50 [9]: > 10 µM
- viability at 10 µM (HepG2 [10]): 87%
- viability at 100 µM (SH-SY5Y [11]): 3%
- viability at 72 h, 10 µM [12]: 77%
- viability at 10 µM (HL-60 [13]): 64%
- Activity [14]: 28.3%

Compound: Nc1nc(=O)[nH]s1
- IC50 (Cathepsin K): 6.34 µM
- viability at 72 h, 100 µM [1]: 49%
- viability at 100 µM (HepG2 [2]): 54%
- viability at 100 µM (HeLa S3 [3]): 87%
- viability at 10 µM (CCRF-CEM [4]): 120%
- viability at 10 µM (HeLa S3 [5]): 100%
- viability at 10 µM (SH-SY5Y [6]): 99%
- viability at 100 µM (HL-60 [7]): 95%
- viability at 100 µM (CCRF-CEM [8]): 4%
- IC50 [9]: > 10 µM
- viability at 10 µM (HepG2 [10]): 87%
- viability at 100 µM (SH-SY5Y [11]): 56%
- viability at 72 h, 10 µM [12]: 101%
- viability at 10 µM (HL-60 [13]): 98%
- Activity [14]: 16.9%

Compound: CC(C)OP(=O)(CO[C@H](CO)Cn1sc(NC(=O)OCC2c3ccccc3-c3ccccc32)nc1=O)OC(C)C
- IC50 (Cathepsin K): 9.25 µM
- viability at 72 h, 100 µM [1]: 100%
- viability at 100 µM (HepG2 [2]): 92%
- viability at 100 µM (HeLa S3 [3]): 100%
- viability at 10 µM (CCRF-CEM [4]): 82%
- viability at 10 µM (HeLa S3 [5]): 99%
- viability at 10 µM (SH-SY5Y [6]): 102%
- viability at 100 µM (HL-60 [7]): 110%
- viability at 100 µM (CCRF-CEM [8]): 82%
- IC50 [9]: > 10 µM
- viability at 10 µM (HepG2 [10]): 102%
- viability at 100 µM (SH-SY5Y [11]): 85%
- viability at 72 h, 10 µM [12]: 98%
- viability at 10 µM (HL-60 [13]): 103%
- Activity [14]: 34.1%

Compound: CN(C)/C=N/c1nc(=O)[nH]s1
- viability at 72 h, 100 µM [1]: 107%
- viability at 100 µM (HepG2 [2]): 85%
- viability at 100 µM (HeLa S3 [3]): 112%
- viability at 10 µM (CCRF-CEM [4]): 122%
- viability at 10 µM (HeLa S3 [5]): 97%
- viability at 10 µM (SH-SY5Y [6]): 100%
- viability at 100 µM (HL-60 [7]): 105%
- viability at 100 µM (CCRF-CEM [8]): 84%
- IC50 [9]: > 10 µM
- viability at 10 µM (HepG2 [10]): 97%
- viability at 100 µM (SH-SY5Y [11]): 75%
- viability at 72 h, 10 µM [12]: 105%
- viability at 10 µM (HL-60 [13]): 102%
- Activity [14]: 67%
